Data as given in patent publication US9204653B2, “5-fluoro pyrimidine derivatives” (DOW AGROSCIENCES LLC, priority 2008, dated 2015).
Where “and” joins values, the source holds several entries; their conditions need not be identical. Equal values may be shown once. Read-outs that look alike come from different tables or passages of the source.

Experiments:
[1] = system: Mycosphaerella fijiensis; BAYER Code MYCOFI; test: Black Sigatoka disease of banana; type: in vivo, Mycosphaerella fijiensis on field grown banana plants; conditions: % disease control rating, banana leaves, natural inoculum
Method: 5. Evaluation of Fungicidal Activity: Black Sigatoka Disease of Banana (Mycosphaerella fijiensis; BAYER Code MYCOFI): […] The leaves were subsequently allowed to become infected by natural inoculum, and were visually assessed for percent disease control ˜40-45 days later. The following tables present the activity of typical compounds of the present disclosure when evaluated in these experiments. The effectiveness of the test compounds in controlling disease was determined by assessing the severity of disease on treated plants, then converting the severity to percent control based on the level of disease on untreated, inoculated plants. In each case of Tables I-V the rating scale is as follows: […]

[2] = system: Mycosphaerella graminicola; Anamorph: Septoria tritici; Bayer Code SEPTTR; test: Leaf blotch of wheat, foliar fungicide treatment, one day protectant (1DP) or three day curative (3DC); type: in vivo, Septoria tritici on wheat plants (variety Yuma); conditions: Zymoseptoria tritici
[3] = system: Cercospora beticola; Bayer Code CERCBE; test: Leaf spot of sugar beets; type: in vivo, Cercospora beticola on sugar beets (variety HH-88); conditions: 24 h, % disease control rating, one day protectant; for pest or weed control at 25 ppm: read-out: CERCBE 1 DP 25 ppm; for pest or weed control at 75 ppm: read-out: CERCBE 1 DP 75 ppm
[4] = system: Venturia inaequalis; Bayer Code VENTIN; test: Apple scab; type: in vivo; conditions: 24 h, % disease control rating, one day protectant; for pest or weed control at 25 ppm: read-out: VENTIN 1 DP 25 ppm; for pest or weed control at 75 ppm: read-out: VENTIN 1 DP 75 ppm
[5] = system: Mycosphaerella graminicola; Anamorph: Septoria tritici; Bayer Code SEPTTR; test: Fungicidal activity as a seed treatment: leaf blotch of wheat; type: in vivo, Septoria tritici on wheat variety Yuma; conditions: for % Control (SEPTTR, seed treatment): 10% SC formulation; for Pot 1 to Pot 8 values (SEPTTR disease severity on treated plants): single pots, 8 replicates
Excerpt: 6. Evaluation of Fungicidal Activity as a Seed Treatment: Leaf Blotch of Wheat (Mycosphaerella graminicola; Anamorph: Septoria tritici; Bayer Code […]) […] Seeds (10 seeds/pot) were planted in 1 inch pot containing 50% mineral soil/50% soil-less Metro mix. 8-day old seedlings were inoculated with an aqueous spore suspension of Septoria tritici, and 8 pots of plants were inoculated for each fungicide rate. After inoculation, plants were kept in 100% relative humidity (one day in a dark dew chamber followed by two days in a lighted mist room) to allow establishment of infection. The plants were then transferred to a greenhouse for disease to develop. When infection levels on untreated plants reached 95 to 100%, disease severities on treated plants were assessed. […] The following tables present the activity of typical compounds of the present disclosure when evaluated in these experiments. The effectiveness of the test compounds in controlling disease was determined by assessing the severity of disease on treated plants, then converting the severity to percent control based on the level of disease on untreated, inoculated plants. In each case of Tables I-V the rating scale is as follows: […]

[6] = 24 h, one day protectant (1DP), percent disease control rating, read-out: SETTTR 1DP 25 ppm
[7] = 24 h, one day protectant (1DP), percent disease control rating, read-out: SEPTTR 1DP 100 ppm
[8] = 72 h, three day curative (3DC), percent disease control rating, read-out: SEPTTR 3DC 25 ppm
[9] = 72 h, three day curative (3DC), percent disease control rating, read-out: SEPTTR 3DC 100 ppm
[10] = 24 h, one day protectant, rating of percent disease control, read-out: SETTTR 1DP 25 ppm
[11] = 24 h, one day protectant, rating of percent disease control, read-out: SEPTTR 1DP 100 ppm
[12] = 72 h, three day curative, rating of percent disease control, read-out: SEPTTR 3DC 25 ppm
[13] = 72 h, three day curative, rating of percent disease control, read-out: SEPTTR 3DC 100 ppm
[14] = 24 h, one day protectant (1DP), rating of percent disease control, read-out: SETTTR 1DP 25 ppm
[15] = 24 h, one day protectant (1DP), rating of percent disease control, read-out: SEPTTR 1DP 100 ppm
[16] = 72 h, three day curative (3DC), rating of percent disease control, read-out: SEPTTR 3DC 25 ppm
[17] = 72 h, three day curative (3DC), rating of percent disease control, read-out: SEPTTR 3DC 100 ppm

| SMILES | pest or weed control at 25 ppm [3] [%] | pest or weed control at 75 ppm [3] [%] | pest or weed control at 25 ppm [4] [%] | pest or weed control at 75 ppm [4] [%] | pest or weed control at 25 ppm [2, 14] [%] | pest or weed control at 100 ppm [2, 15] [%] | pest or weed control at 25 ppm [2, 16] [%] | pest or weed control at 100 ppm [2, 17] [%] | also measured |
| --- | --- | --- | --- | --- | --- | --- | --- | --- | --- |
| Nc1nc(OCc2ccc(F)cc2)ncc1F [Compound 1, 5-Fluoro-2-(4-fluorobenzyloxy)pyrimidin-4-amine] | 26 to 50 | 26 to 50 | 76 to 100 | 76 to 100 |  |  |  |  | MYCOFI 1 DP 50 ppm ([1]; 50 ppm): C (26-50); MYCOFI 1 DP 200 ppm ([1]; 200 ppm): B (51-75); pest or weed control at 25 ppm [2, 6]: 76 to 100%; pest or weed control at 100 ppm [2, 7]: 76 to 100%; pest or weed control at 25 ppm [2, 8]: 76 to 100%; pest or weed control at 100 ppm [2, 9]: 76 to 100% |
| Cc1ccc(COc2ncc(F)c(N)n2)cc1 [Compound 15] |  |  | 76 to 100 | 76 to 100 |  |  |  |  | control of SEPTTR via seed treatment (in words) ([5]; lowest test rate of 1.48 g ai/100 kg seeds): nearly complete control; % Control (SEPTTR, seed treatment) ([5]; rate 1.48 g/100 kg seeds): A (76-100); Pot 1 to Pot 8 values (SEPTTR disease severity on treated plants) ([5]; rate 1.48 g/100 kg seeds): 3% (3×) and 1% (2×) and 0% (3×); % Control (SEPTTR, seed treatment) ([5]; rate 4.44 g/100 kg seeds): A (76-100); Pot 1 to Pot 8 values (SEPTTR disease severity on treated plants) ([5]; rate 4.44 g/100 kg seeds): 0% (5×) and 1% (3×); % Control (SEPTTR, seed treatment) ([5]; rate 13.3 g/100 kg seeds): A (76-100); Pot 1 to Pot 8 values (SEPTTR disease severity on treated plants) ([5]; rate 13.3 g/100 kg seeds): 0% (4×) and 1% (4×); % Control (SEPTTR, seed treatment) ([5]; rate 40 g/100 kg seeds): A (76-100); Pot 1 to Pot 8 values (SEPTTR disease severity on treated plants) ([5]; rate 40 g/100 kg seeds): 0% (5×) and 1% (3×); % Control (SEPTTR, seed treatment) ([5]; rate 120 g/100 kg seeds): A (76-100); Pot 1 to Pot 8 values (SEPTTR disease severity on treated plants) ([5]; rate 120 g/100 kg seeds): 0%; pest or weed control at 25 ppm [2, 6]: 76 to 100%; pest or weed control at 100 ppm [2, 7]: 76 to 100%; pest or weed control at 25 ppm [2, 8]: 76 to 100%; pest or weed control at 100 ppm [2, 9]: 76 to 100% |
| CN(C)/C=N/c1nc(OCc2ccn(C)n2)ncc1F [Compound 730] | 26 to 50 | 26 to 50 | 51 to 75 | 51 to 75 |  |  |  |  | pest or weed control at 25 ppm [2, 10]: 76 to 100%; pest or weed control at 100 ppm [2, 11]: 76 to 100%; pest or weed control at 25 ppm [2, 12]: 76 to 100%; pest or weed control at 100 ppm [2, 13]: 76 to 100% |
| COc1ccc(COc2ncc(F)c(/N=C3\CCCCN3C)n2)cc1F [Compound 732] | 26 to 50 | 76 to 100 | 26 to 50 | 76 to 100 |  |  |  |  | pest or weed control at 25 ppm [2, 10]: 76 to 100%; pest or weed control at 100 ppm [2, 11]: 76 to 100%; pest or weed control at 25 ppm [2, 12]: 51 to 75%; pest or weed control at 100 ppm [2, 13]: 76 to 100% |
| CO/N=C\Nc1nc(OCc2ccc(F)cc2)ncc1F [Compound 739] | 0 to 25 | 0 to 25 | 26 to 50 | 51 to 75 | 76 to 100 | 76 to 100 | 76 to 100 | 76 to 100 |  |
| COc1cccc(COc2ncc(F)c(NCO)n2)c1 [Compound 741] | 0 to 25 | 0 to 25 | 51 to 75 | 76 to 100 | 26 to 50 | 76 to 100 | 76 to 100 | 76 to 100 |  |
| Cn1nc(Oc2ncc(F)c(N)n2)cc1C(F)(F)F [Compound 764] | 26 to 50 | 0 to 25 | 26 to 50 | 26 to 50 | 0 to 25 | 0 to 25 | 0 to 25 | 0 to 25 |  |
| Cc1c(COc2ncc(F)c(N)n2)cnn1C [Compound 800] | 76 to 100 | 76 to 100 | 76 to 100 | 76 to 100 | 76 to 100 | 76 to 100 | 76 to 100 | 76 to 100 |  |
